In publication PMC3516535, “Rhesus Macaque Theta Defensins Suppress Inflammatory Cytokines and Enhance Survival in Mouse Models of Bacteremic Sepsis” (PLoS ONE, 2012):
Read-outs that look alike come from different tables or passages of the source. Bridge positions count the residues as written; N and C are the ends. Peptide text beside a SMILES is read from it.

What was measured:
[1] = test system: leukocytes / target cells; test: Cytotoxicity by trypan blue staining in the in vitro incubations; type: cell-based, human; details: TNF release incubations in blood, 4 h
E. coli = test: Killing of E. coli during pre-incubation with peptide; type: cell-based, Escherichia coli; details: 100 CFU/ml E. coli, 10 µg/ml peptide in RPMI
[2] = human whole blood, data not shown
[3] = LPS neutralization assay (Limulus amoebocyte lysate); type: biochemical, Escherichia coli; details: LAL assay, 0–10 µg/ml, N = 4
Procedure: To each sample 25 µl of Limulus amoebocyte lysate (LAL; Lonza) was added and incubated for 10 min at 37°C after which 100 µl of LAL substrate was added and incubated for 6 min at 37°C. Reactions were quenched with 50 µl of 25% HOAc and read spectrophotometrically at 405 nm.

[4] = test system: SARS-coronavirus (SARS-CoV); details: cited from earlier work
[5] = test system: human EDTA-anti-coagulated blood diluted 1∶10; test: TNF release assay in stimulated diluted whole blood (ELISA); type: cell-based
host cells = details: cited from earlier work
Text: The only detected tissue effect as ...

DA rats = test system: DA rats; parameters: method as in Schaal et. al, manuscript in preparation; details: repetitive (8–15 injections) s.c. challenge, after 8 weeks; ref Schaal et. al, manuscript in preparation; cited from earlier work
[6] = test system: BALB/c mice with CLP polymicrobial sepsis; test: Cecal-ligation/puncture (CLP) induced sepsis; type: in vivo, mouse
Procedure: Polymicrobial peritonitis was induced in 6–8 week old BALB/c mice by CLP as described, [21]. Briefly, laparotomy was performed on anesthetized animals and the cecum was ligated below the ileocecal valve. Both walls of the cecum were punctured twice with an 18-gauge needle, and the surgical wound closed with 3–0 nylon suture. All animals fully recovered within 60 min. […] Animal health was evaluated daily for 28 days. As above, mice were euthanized when they became moribund.

[7] = test system: BALB/c mice challenged with E. coli K12; details: 8×10^8 CFU E. coli K12 i.p., single s.c. dose 5 mg/kg at challenge, n = 13
[8] = mouse whole blood, data not shown
[9] = test system: human peripheral blood leukocytes (PBL); test: Cytokine/chemokine release by TLR agonist-stimulated peripheral blood leukocytes (Milliplex); type: cell-based
Procedure: EDTA-anticoagulated blood was obtained from healthy adult volunteers as approved by the Institutional Review Board at USC (protocol # HS-09-00280). Peripheral blood leukocytes (PBL) were harvested from 10–15 ml whole blood after centrifugation at 200× g. Cells were washed twice with 3–5 ml of RPMI, counted with a hemocytometer, and suspended to a cell density of 5×10^5 cells/ml in RPMI +5% human EDTA-plasma. PBLs were stimulated for 4 h with either 0.9 µg/ml ssRNA40, 30 ng/ml S. typhimurium flagellin, 3.3×10^7 CFU/ml heat-killed L. monocytogenes (HKLM), 3 ng/ml E. coli K12 LPS, or 100 CFU/ml of the clinical E. coli isolate. Cytokines/chemokines were quantified using a Milliplex MAP kit on a BioRad Bioplex HTF Luminex reader at the Beckman Center for Immune Monitoring at USC-Norris Cancer Center.

[10] = rat whole blood, data not shown
THP-1 monocytic cells = test: TNF release assay in LPS-stimulated THP-1 monocytes (ELISA); type: cell-based, human; details: THP-1 in RPMI +5% human EDTA-plasma, 1 ng/ml K12 LPS, 4 h, N = 2
Procedure: THP-1 monocytic cells (ATCC, Manassas, VA) were grown and maintained in RPMI-1640 medium containing 10% fetal bovine serum and penicillin/streptomycin. Cells were harvested by centrifugation, washed with RPMI-1640 medium and suspended at 5×10^5 cells/ml in fresh medium containing 5% human EDTA plasma.
Peptides (RTDs 1–5, human neutrophil α-defensins) were aliquoted into wells of pyrogen-free 12- or 24-well plates wherein final peptide concentrations were 0–10 µg/ml. Wells were inoculated with 1×10^5 CFU/ml S. aureus or 100 CFU/ml E. coli, or 1–3 ng/ml of E. coli K12 LPS. Samples (5–10 µl) containing peptide or bacteria/LPS were placed on opposite sides of the plate well. Mixing commenced with the addition of 0.5 to 2.0 ml of 1∶10 diluted blood, PBLs (5×10^5/ml), or THP-1 cells (2–5×10^5 cells/ml). Plates were incubated at 37°C in 5% CO2 for 4 h with gentle mixing. […] Incubation mixtures were centrifuged at 200× g for 10 min at 22°C and supernatants were clarified by centrifugation at 23,000× g for 15 min at 4°C. Supernatant TNF was quantified by sandwich ELISA (OptEIA II; BD Biosciences; Hu TNF-α, Invitrogen) per suppliers’ directions, using a SpectraMax Plate Reader.

in vitro = details: human, EDTA plasma
[11] = ref D. Tran & M.E. Selsted, unpublished data, cited from earlier work
BALB/c mice = test: Mouse exposure study, repeated subcutaneous injection; type: in vivo
Procedure: Twenty four h after the fourth injection, mice were euthanized with CO2, blood was collected by cardiac puncture, and tissues were harvested and fixed in 10% buffered formalin. Histopathologic examination was performed on sections of heart, lung, liver, spleen, kidney, and injection site skin and subcutaneous tissue. A basic metabolic panel (UC Davis-William R. Pritchard Veterinary Medical Teaching Hospital) was performed on serum samples obtained by cardiac puncture at the time of euthanasia.

[12] = PBL stimulated 4 h with 0.9 µg/ml ssRNA40 (TLR8 agonist), simultaneous addition of 10 µg/ml peptide

SMILES: CC[C@H](C)[C@@H]1NC(=O)[C@@H]2CSSC[C@H](NC(=O)[C@H](CCCNC(=N)N)NC(=O)[C@@H]3CSSC[C@H](NC1=O)C(=O)N[C@@H]([C@@H](C)O)C(=O)N[C@@H](CCCNC(=N)N)C(=O)NCC(=O)N[C@@H](Cc1ccccc1)C(=O)N3)C(=O)N[C@@H](CC(C)C)C(=O)N[C@H]1CSSC[C@H](NC(=O)[C@H](C(C)C)NC(=O)CNC(=O)[C@H](CCCNC(=N)N)NC(=O)[C@H](CCCNC(=N)N)NC1=O)C(=O)N[C@@H](CCCNC(=N)N)C(=O)N2 [RTD-1] (cyclo(GFCRCLCRRGVCRCICTR); disulfide 3-16, 5-14, 7-12)
- cytotoxicity (trypan blue staining of leukocytes) [1]: no cytotoxicity was detected
- time to killing of E. coli (absence of viable bacteria) (E. coli): ≤ 30 min
- time highly stable in whole blood [2]: at least 24 h
- effectiveness in neutralizing E. coli LPS relative to polymyxin B (fold less effective) ([3]; 10 min 37°C): 50–100 fold
- neutralization of E. coli LPS [3]: ineffective in neutralizing
- virus neutralization in vitro [4]: did not neutralize the virus
- blockade of TNF release ([5]; E. coli pre-treated with 10 µg/ml peptide for 0–120 min before addition of blood, 4 h, all time-points): complete blockade
- hierarchy of anti-TNF potencies ([5]; E. coli-stimulated blood, 4 h, N = 2): RTD-5>2>1>4>3
- effect of peptide alone on TNF release ([5]; blood incubated 4 h with peptide alone, no stimulus): no effect
- toxicity to host cells in vitro (host cells): non-toxic
- anti-RTD-1 antibody (DA rats): no anti-RTD-1 antibody
- long term survival ([6]; single i.v. dose administered 4 h after CLP surgery, 28 days): 10 of 11
- recovery / survival ([6]; single i.v. dose delayed until 24 h post CLP, through end of trial): 4 of 5
- survival [7]: significantly improved survival
- time highly stable in whole blood [8]: at least 24 h
- effect on induced levels of chemokines CXCL8 (IL-8), CCL2 (MCP-1), CCL3 (MIP-1α), CCL4 (MIP-1β) ([9]; HKLM-stimulated PBL, 10 µg/ml peptide, 4 h): no suppression
- suppression of supernatant IL-1β level [9, 12]: 95%
- suppression of supernatant IL-8 level [9, 12]: 68%
- effect on VEGF-A ([9]; RTD-1 treatment of PBLs): reproducible elevation
- effect of peptide alone on cytokine/chemokine release ([9]; unstimulated leukocytes, 10 µg/ml peptide alone, exception VEGF and to a lesser degree CCL2 (MCP-1)): little effect
- time highly stable in whole blood [10]: at least 24 h
- hierarchy of anti-TNF potencies (THP-1 monocytic cells): RTD-5>2>1>4>3
- remaining at 72 h, 50 µg/ml (in vitro): 93%
- stability to heating ([11]; 100°C, 30 min): completely stable
- stability to extended storage at pH 2.0 ([11]; pH 2.0): completely stable
- incidence of focal, non-erythematous swelling at injection site (BALB/c mice; 40 mg/kg s.c. daily, at day 4): 2/4
- incidence of focal, non-erythematous swelling at injection site (BALB/c mice; 160 mg/kg s.c. daily, by day 3): 4/4
- histopathology of lungs, kidneys, heart, liver, spleen (BALB/c mice; after 4 day dosing regimen, all peptide levels tested): no abnormalities
- serum chemistries (BALB/c mice; daily s.c. injections for 4 days, 2.5–160 mg/kg, basic metabolic panel): indistinguishable from saline-treated controls
- acute toxicity (BALB/c mice; daily s.c. injections for 4 days, up to 160 mg/kg (highest dose tested), groups of four): no acute toxicity was observed
- lobular panniculitis with fat necrosis at injection site (BALB/c mice; multiple injections of 2.5 or 10 mg/kg): absent
